The values that follow come from ChEMBL document CHEMBL1201862, “PubChem BioAssay data set” (2004).

Among the test systems are HCT-15; RPMI-8226; LOX IMVI; HCT-116; IGROV-1; SK-MEL-5; Hs-578T; NCI-H226; BT-549; TK-10; NCI/ADR-RES; A549; MOLT-4; OVCAR-3; 786-0; SK-MEL-28; NCI-H522; SF-539; M14; Malme-3M.
Holding throughout (assay): NCI anticancer screen, dose series, 48 h

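96-well plates; 48 h exposure; 5 concentrations. Endpoints by linear interpolation between flanking doses. Not reached: highest tested concentration assigned. GI50: concentration for 50% inhibition of growth.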 Active and inactive are the calls of the source. No stated cut-off is given here; in the data, active = GI50 up to about 1.1 µM and inactive = higher. Residues, ends and D or L forms follow the SMILES beside them. *: point of attachment. Boc = CC(C)(C)OC(=O)*; Bz = O=C(c1ccccc1)*

Turning to `O=C1OC[C@@H]2[C@@H](O)CCCCCN12`, the GI50 in the assay on HCT-15 is over 100 µM; with RPMI-8226, > 100 µM (inactive); in the assay with LOX IMVI it was > 100 µM (inactive); in the assay on HCT-116, > 100 µM (inactive); with IGROV-1, > 100 µM (inactive); in the assay on SK-MEL-5, > 100 µM (inactive). Besides, the GI50 in the assay with Hs-578T, in the assay with NCI-H226, in the assay with BT-549, in the assay with TK-10, with NCI/ADR-RES and in the assay with A549 was > 100 µM (inactive) in each case. The GI50 in the assay with MOLT-4 was > 100 µM (inactive); with OVCAR-3, > 100 µM (inactive); with 786-0 it was > 10 µM (inactive); in the assay on SK-MEL-28, > 100 µM (inactive); in the assay with NCI-H522, > 100 µM (inactive); in the assay on SF-539 it was > 100 µM (inactive).
With `O=C1N=C(c2ccccc2)OC1C(=O)c1ccccc1` (centres undefined), the GI50 is over 100 µM in the assay on HCT-15; > 100 µM (inactive) with RPMI-8226; > 100 µM (inactive) in the assay on LOX IMVI; > 100 µM (inactive) in the assay with M14; > 100 µM (inactive) in the assay with HCT-116; 46.5 µM (inactive) with IGROV-1. The GI50 in the assay on SK-MEL-5, with Hs-578T, in the assay on NCI-H226, in the assay on BT-549, in the assay on TK-10 and in the assay on NCI/ADR-RES was > 100 µM (inactive) throughout. Moreover, the GI50 in the assay with A549, in the assay on MOLT-4, in the assay with OVCAR-3, in the assay on 786-0, in the assay with SK-MEL-28 and with NCI-H522 was > 100 µM (inactive) in each case.
As for `COc1ccc2c(c1)C1OCCNC1CC2` (centres undefined), the GI50 was over 100 µM with HCT-15; > 100 µM (inactive) in the assay with RPMI-8226; > 100 µM (inactive) in the assay on LOX IMVI; > 100 µM (inactive) in the assay with M14; > 100 µM (inactive) in the assay with HCT-116; > 100 µM (inactive) with IGROV-1. Further, the GI50 in the assay with SK-MEL-5, in the assay with Hs-578T, in the assay with NCI-H226, in the assay with BT-549, in the assay with TK-10 and in the assay on NCI/ADR-RES was > 100 µM (inactive) in each case. Moreover, the GI50 with A549, in the assay with MOLT-4, in the assay on Malme-3M, in the assay with 786-0, in the assay on SK-MEL-28 and with NCI-H522 was > 100 µM (inactive) in each case. The GI50 in the assay on SF-539 is > 100 µM (inactive).
With `CC(C)(C)OC(=O)CN1CCNCCN(CC(=O)OC(C)(C)C)CCNCC1`, the GI50 with HCT-15 was over 100 µM; with RPMI-8226, 70 µM (inactive); with LOX IMVI it was 86.7 µM (inactive); with HCT-116 it was 26.2 µM (inactive); in the assay on IGROV-1, > 100 µM (inactive); in the assay with SK-MEL-5 it was 50.6 µM (inactive). For the same compound, the GI50 is > 100 µM (inactive) in the assay on Hs-578T; > 100 µM (inactive) in the assay on NCI-H226; > 100 µM (inactive) with BT-549; > 100 µM (inactive) in the assay with TK-10; > 100 µM (inactive) in the assay with NCI/ADR-RES; 82 µM (inactive) with A549. Besides, the GI50 with MOLT-4 is 64.7 µM (inactive); in the assay with OVCAR-3 it was > 100 µM (inactive); with 786-0 it was > 100 µM (inactive); in the assay with SK-MEL-28, > 100 µM (inactive); in the assay on NCI-H522 it was > 100 µM (inactive); in the assay with SF-539 it was > 100 µM (inactive).
Turning to `CC(NC(=O)C(Cc1ccc(OC(=O)c2ccccc2)cc1)NC(=O)OC(C)(C)C)C(=O)NC(Cc1ccccc1)C(=O)NCC(N)=O` (centres undefined) (Boc-Y(Bz)AFG-NH2; configuration not given here), the GI50 in the assay on HCT-15 is 53 µM; in the assay with RPMI-8226, 24 µM (inactive); in the assay on LOX IMVI, 22 µM (inactive); in the assay on M14 it was 17.9 µM (inactive); in the assay with HCT-116 it was 27.5 µM (inactive); in the assay on IGROV-1 it was 20.4 µM (inactive). Further, the GI50 is 26.3 µM (inactive) with SK-MEL-5; 20.3 µM (inactive) with Hs-578T; 20.9 µM (inactive) in the assay with NCI-H226; 19 µM (inactive) with BT-549; 20.8 µM (inactive) in the assay with TK-10; > 100 µM (inactive) with NCI/ADR-RES. The GI50 with A549 was 23.4 µM (inactive); with MOLT-4 it was 29.3 µM (inactive); with Malme-3M, 20.8 µM (inactive); with 786-0, 20.3 µM (inactive); with SK-MEL-28, 28.7 µM (inactive); in the assay on NCI-H522, 17.9 µM (inactive). Further, the GI50 with SF-539 was 24.9 µM (inactive).
In the case of `COc1cc([C@@H]2OC[C@@H]3C(c4cc(OC)c5c(c4)OCO5)OC[C@@H]32)cc(OC)c1OC` (some centres undefined), the GI50 in the assay on HCT-15 was 43.3 µM; with RPMI-8226, 49.5 µM (inactive); in the assay with LOX IMVI, > 100 µM (inactive); in the assay with M14, > 100 µM (inactive); in the assay with HCT-116 it was > 100 µM (inactive); with IGROV-1, > 100 µM (inactive). In addition, the GI50 in the assay with SK-MEL-5 was 26.9 µM (inactive); in the assay on Hs-578T it was > 100 µM (inactive); with NCI-H226, > 100 µM (inactive); in the assay on BT-549, 57.9 µM (inactive); in the assay on TK-10, > 100 µM (inactive); in the assay on NCI/ADR-RES, 31.6 µM (inactive). Also, the GI50 with A549 is > 100 µM (inactive); with MOLT-4, 51.3 µM (inactive); with OVCAR-3, > 100 µM (inactive); with 786-0, > 100 µM (inactive); with SK-MEL-28, > 100 µM (inactive); with NCI-H522, 96.8 µM (inactive). Besides, in the assay on SF-539, the GI50 was > 100 µM (inactive).
Regarding `Cc1ccc([N+](=O)[O-])cc1S(=O)(=O)Nc1ccc(C2=NOC(c3ccccc3)C2)cc1` (centres undefined), the GI50 is 4.11 µM with HCT-15; 4.7 µM (inactive) in the assay with RPMI-8226; 10.9 µM (inactive) with LOX IMVI; 4.11 µM (inactive) in the assay with M14; 7.08 µM (inactive) in the assay with HCT-116; 5.48 µM (inactive) in the assay on IGROV-1. In addition, the GI50 in the assay with SK-MEL-5 is 6.47 µM (inactive); with Hs-578T it was 19.8 µM (inactive); in the assay on NCI-H226, 24.9 µM (inactive); with BT-549 it was 12.4 µM (inactive); in the assay with NCI/ADR-RES it was 3.04 µM (inactive); with A549 it was 6.89 µM (inactive). Moreover, the GI50 in the assay with MOLT-4 was 2.61 µM (inactive); in the assay on OVCAR-3, 3.33 µM (inactive); in the assay on Malme-3M, 8.63 µM (inactive); in the assay with 786-0, 13.8 µM (inactive); in the assay with SK-MEL-28 it was 18.7 µM (inactive); in the assay with NCI-H522, 3.27 µM (inactive). Also, in the assay with SF-539, the GI50 is 9.77 µM (inactive).
As for `CC(C)Oc1c(-c2c(OC(C)C)c(=O)c2=O)c(=O)c1=O`, the GI50 with HCT-15 is over 60.5 µM; with RPMI-8226, 29.9 µM (inactive); in the assay with LOX IMVI, > 32.4 µM (inactive); with M14 it was > 100 µM (inactive); with HCT-116 it was > 32.4 µM (inactive); in the assay on IGROV-1, > 31.7 µM (inactive). Further, the GI50 in the assay on SK-MEL-5 is > 41.6 µM (inactive); in the assay on Hs-578T, > 41.9 µM (inactive); in the assay on NCI-H226, > 78.3 µM (inactive); in the assay on BT-549, > 48 µM (inactive); in the assay on TK-10, > 70.1 µM (inactive); in the assay with NCI/ADR-RES, 4.81 µM (inactive). Further, the GI50 in the assay with A549 was > 100 µM (inactive); with MOLT-4 it was > 36.6 µM (inactive); in the assay on Malme-3M, 0.344 µM (active); in the assay on 786-0, > 52.5 µM (inactive); with SK-MEL-28 it was > 68.2 µM (inactive); with NCI-H522, > 20.1 µM (inactive). Moreover, the GI50 in the assay on SF-539 was > 65.8 µM (inactive).
